Assay results as given in patent US20160082036A1, “HYDROXYALKYL STARCH FOR THE TREATMENT OF CANCERS BY REDUCTION OF TUMOR GROWTH RATES” (Fresenius Kabi Deutschland GmbH, priority 2012, published 2016).

How the values were obtained:
[1] = Example 1: body weight and blood parameters of MT-3 tumor-bearing mice; assay type: in vivo, NMRI:nu/nu mice
Protocol: Summary: Mice were either treated with a single i.v. injection of docetaxel (Taxotere®) at a dose of 25 mg/kg or with the plasma expander Voluven® (20 ml/kg) or with “HES 100/1.0” (approx. 740 mg/kg) dissolved in saline to determine tumor growth and body weight over the course of the experiment.
(§1) Adult female NMRI:nu/nu mice (TACONIC Europe, Lille Skensved, Denmark) bred in the own (EPO) colony were used throughout the study.
(§2) The application volume was 10 ml/kg (approx. 200 μl/20 g mouse) mouse body weight for vehicle, HES 100/1.0 and docetaxel and 20 ml/kg for Voluven®. The route of administration was by intravenous (i.v.) injection into the tail vein.
Individual body weights of mice were determined two times weekly and mean body weight per treatment group.
Blood samples were drawn from the retro-orbital sinus under iso-flurane anaesthesia three days after the treatment. Blood samples of 50-100 μl were taken into tubes prepared with EDTA for haematological parameters from a subset of each group (generally 30-50%). The following parameters were determined: total leucocyte count (WBC), erythrocyte count (RBC), haemoglobin (HGB), haematocrit (HCT), mean corpuscular volume (MCV), mean corpuscular haemoglobin (MCH), mean corpuscular haemoglobin concentration (MCHC) and platelet count (PLT) using a Coulter Counter instrument.
(§3) Statistical evaluation of was performed with the U-test of Mann and Whitney using the Windows program […] 6. A significance level of p<0.05 was used.

[2] = test system: human breast cell carcinoma line MT-3; assay: Example 2: MT-3 xenograft tumor growth after single i.v. injection; assay type: in vivo
Protocol: Summary: Mice were either treated with a single i.v. injection of docetaxel (Taxotere®) at a dose of 25 mg/kg or with the plasma expander Voluven® (20 ml/kg) or with HES 100/1.0 (approx. 740 mg/kg) dissolved in saline/EtOH to determine tumor growth and body weight over the course of the experiment.
Docetaxel (available under the name Taxotere®) was obtained from Sanofi-Aventis Deutschland GmbH, (Lot CHB D9C895; Berlin, Germany) and was stored in the dark at −20° C. until use. […] HES 100/1.0 (as specified in table 2 above) was dissolved in saline/EtOH.
The final solution of docetaxel was prepared immediately before injection by mixing an appropriate volume of the original stock solution provided by Sanofi (20 mg/ml) with saline (0.9% NaCl, B. Braun Melsungen AG, Melsungen, Germany) as indicated in the table 6 below. Saline was mixed with absolute ethanol to obtain an approx. 6.25% solution, the original vehicle of Taxotere®. Voluven® was used in the original formulation described above.
as §1
The MT-3 cell line was used for subcutaneous (s.c.) xenotransplantation in immune deficient female NMRI:nu/nu mice. The MT-3 breast carcinoma cell line was obtained from the tumor bank of the National Cancer Institute of the former USSR, WONZ, Moscow (Naundorf H. Rewasowa E. Fichtner I et al. Characterization of two human mammary carcinomas, MT-1 and MT-3, suitable for in vivo testing of ether lipids and their derivatives. Breast Cancer Res Treat. 1992; 23:87-95).
The cells are cryo-preserved within the EPO tumor bank. Cells were thawed, expanded by in vitro culture and transplanted s.c. as cell suspension (5×10^6 tumor cells/mouse in 200 μl).
On study day 0 each 5×10^6 tumor cells were transplanted s.c. into the flank of each mouse. The animals were monitored for tumor growth and when tumors were palpable, about day 7 after inoculation, mice were randomised into the treatment groups.
as §2
Individual tumor diameters were measured two times weekly with a calliper. Tumor volumes were calculated according to V=(length×(width)^2)/2. For calculation of the relative tumor volume (RTV) the tumor volumes at each measurement day were related to the day of first treatment. At each measurement day the median and mean tumor volumes per group and also the treated to control (T/C RTV) values in percent were calculated.
Mice were sacrificed when tumors reached a mean size above 1 cm^3 per group. On the day of necropsy mice were sacrificed by cervical dislocation and inspected for gross organ changes.
as §3

[3] = blood drawn three days after single i.v. treatment

With CC(=O)O[C@@]12CO[C@@H]1C[C@H](O)[C@@]1(C)C(=O)[C@H](O)C3=C(C)[C@@H](OC(=O)[C@H](O)[C@@H](NC(=O)OC(C)(C)C)c4ccccc4)C[C@@](O)([C@@H](OC(=O)c4ccccc4)[C@H]21)C3(C)C [Docetaxel] the “body weight development (in words)” value ([1]; after single i.v. treatment, FIG. 3) was “Body weight loss”, the “leucopenia (in words)” value ([1]; after single i.v. treatment, table 5) was “slight but significant leucopoenia” and the “Platelets × 10^6 at day 10” value [1, 3] was 1418 ± 85 × 10^6. The “WBC × 10^6 at day 10” value [1, 3] was 3.09 ± 0.76 × 10^6, the “effect on platelet counts (in words)” value ([1]; compared to saline+EtOH treated group) was “no significant effect on the platelet counts” and the “tumor size at day 8” value ([2]; day 8 after inoculation (day of dosing)) was 0.0866 cm^3. The “Tumor volume (mean) cm^3/day 25” value ([2]; single i.v. dose at day 8 after inoculation) was 0.343 cm^3, the “tumor size at day 10” value ([2]; single i.v. dose day 8) was 0.1046 cm^3 and the “tumor size at day 15” value ([2]; single i.v. dose day 8) was 0.1228 cm^3. The “tumor size at day 18” value ([2]; single i.v. dose day 8) was 0.1995 cm^3, the “tumor size at day 22” value ([2]; single i.v. dose day 8) was 0.2465 cm^3 and the “tumor size at day 25” value ([2]; single i.v. dose day 8) was 0.3430 cm^3. The “inhibition of tumor growth (in words)” value ([2]; single i.v. treatment, compared to control group, table 8, FIG. 2) was “significant inhibition of tumor growth”.
